Molecular target: Hypoxia-inducible factor 1-alpha (Homo sapiens, UniProt Q16665)
Test: ChEBML_1685544
Description: Inhibition of hypoxia-induced HIF1alpha (unknown origin) transcriptional activity expressed in human HCT116 cells by HRE luciferase reporter gene assay

Hypoxia-inducible factor 1-alpha, sequence (Q16665 whole entry): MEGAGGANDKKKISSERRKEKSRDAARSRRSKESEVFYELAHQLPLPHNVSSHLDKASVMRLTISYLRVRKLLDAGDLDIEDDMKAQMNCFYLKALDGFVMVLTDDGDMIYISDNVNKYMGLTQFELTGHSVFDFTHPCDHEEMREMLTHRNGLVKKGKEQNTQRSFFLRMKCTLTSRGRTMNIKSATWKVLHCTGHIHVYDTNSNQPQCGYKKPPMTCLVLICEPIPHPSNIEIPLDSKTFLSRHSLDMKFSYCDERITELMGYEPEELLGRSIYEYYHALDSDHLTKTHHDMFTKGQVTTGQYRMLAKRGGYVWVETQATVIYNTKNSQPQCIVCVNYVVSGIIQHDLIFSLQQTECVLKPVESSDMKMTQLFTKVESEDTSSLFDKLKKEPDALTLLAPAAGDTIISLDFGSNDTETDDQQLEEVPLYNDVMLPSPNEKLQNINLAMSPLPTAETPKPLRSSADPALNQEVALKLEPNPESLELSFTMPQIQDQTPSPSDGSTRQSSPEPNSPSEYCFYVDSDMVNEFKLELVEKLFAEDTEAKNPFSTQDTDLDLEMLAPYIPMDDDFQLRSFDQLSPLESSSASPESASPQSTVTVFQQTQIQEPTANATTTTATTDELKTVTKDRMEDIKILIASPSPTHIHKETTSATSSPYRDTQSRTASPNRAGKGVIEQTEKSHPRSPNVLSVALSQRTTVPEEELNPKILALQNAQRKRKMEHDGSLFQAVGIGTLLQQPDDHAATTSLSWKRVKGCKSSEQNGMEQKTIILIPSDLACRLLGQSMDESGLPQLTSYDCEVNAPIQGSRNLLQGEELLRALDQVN

Compound	IC50 [µM]
CO/N=C/c1ccc(OC)c(OCc2ccccc2/C(=N\OC)C(=O)OC)c1	14.9
CO/N=C(\C)c1cccc(OCc2ccccc2/C(=N\OC)C(=O)OC)c1	4.52
CO/N=C/c1cccc(OCc2ccccc2/C(=N\OC)C(=O)OC)c1	3.4
CO/N=C(/C(=O)OC)c1ccccc1COc1cccc(OCC#N)c1	> 20
CO/N=C(/C(=O)OC)c1ccccc1COc1cccc(O)c1	9.16

The next molecules have a lower IC50 than those just listed; values first:

IC50 [µM]	Compound
0.94	CO/N=C(/C(=O)OC)c1ccccc1COc1cccc(OCc2cc(C(F)(F)F)cc(C(F)(F)F)c2)c1
0.87	C=Cc1ccc(COc2cccc(OCc3ccccc3/C(=N\OC)C(=O)OC)c2)cc1
0.6	CO/N=C(/C(=O)OC)c1ccccc1COc1cccc(OCc2ccc(Cl)cc2)c1
1.12	CO/N=C(/C(=O)OC)c1ccccc1COc1cccc(OCc2ccccc2)c1

From BindingDB's records for doi:10.1016/j.bmcl.2017.05.024 (Yeungnam University, 2017)
